# Data: US20190275040A1, “COMPOUNDS AND METHODS FOR TREATING OR PREVENTING ALZHEIMER'S DISEASE” (YALE UNIVERSITY, priority 2016, published 2019)
# Assays:
# Pyk2 = Pyk2 (Homo sapiens, UniProt Q14289); assay: Pyk2 Ki of kinase inhibitors (CHEMBL & IUPHR-BPS database screen, Table 2); format: biochemical; settings: Pyk2 versus Fyn
# APP/PS1 transgenic mice = assay: Learning and memory (novel object recognition, Morris water maze) in APP/PS1 transgenic mice; format: in vivo, mouse; settings: 12 month APP/PS1 mice, 25 mg/kg/d minipump i.p. infusion, 3-6 weeks
# Experimental: FIG. 5A plots the time mice spent interacting with a familiar and a novel object. Mean±SEM, n=10-16 mice. *, p<0.05; **, p<0.01 by two-way ANOVA, Sidak's multiple comparisons test. FIG. 5B depicts spatial learning and memory as examined by the Morris-Water-Maze after 30 swim trials to a hidden platform. A 60 second probe trial was performed 24 hours after completion of training. Time spent in the quadrant where the hidden platform had been located. Mean±SEM of n=7-23 mice. *, p<0.05; ***, p<0.001. Dashed lines in FIGS. 5A-5B are chance (no memory). […]
# The efficacy of PF-719 Pyk2 inhibitor to rescue AD transgenic phenotypes was tested by infusion for 6 weeks in 12 month APP/PS1 transgenic with pre-established memory deficits and WT mice, similar to the SAM 923 and Pyk2−/− experiments. […] The brains of these mice are analyzed for synapse density, gliosis and Aβ. […]
# Mice were handled for five minutes a day for five days prior to experiment to reduce anxiety. […] Object choice was pseudorandom; the object was recorded as the familiar object for each animal. The mouse was then replaced in cage's center, not facing either object, and a total timer counted up to ten minutes. The mice were allowed to explore the object and the time it took to accumulate thirty seconds of total orofacial object exploration was recorded. […]
# [1] = system: primary hippocampal neurons; assay: Aβo-dependent dendritic spine loss in primary hippocampal neurons; format: cell-based, mouse; settings: Aβo for 4 days
# Description: FIGS. 11A-11H illustrate the finding that Aβo-induced dendritic spine deficits are prevented by deletion of Pyk2 and RhoA inhibition in primary neurons. FIG. 11A: Representative images of dendritic spine motility by standard deviation projection of time-lapse image. […] The standard deviation value for each pixel is shown by thermal color scale. Scale bar, 10 μm. FIG. 11B: Quantification of spine motility, expressed as % of changed area of spines with subtraction of changed area of dendritic shaft as background (changed area=(ΔAspine/Aspine×100)−(ΔAshaft/Ashaft×100)). […]
# It was considered whether the acute effects of Aβo-induced, Pyk2-mediated decrease on spine motility might be translated into alteration in spine number over longer time periods. Dendritic spine density was measured in populations of vehicle and Aβo treated primary hippocampal neuron cultures. […]
# Analysis and quantification of data were performed with Volocity software after max intensity projection. The numbers of dendritic spines were counted manually to estimate the density of primary or secondary dendritic branch by observer unaware of drug or genotype. For each condition, at least 3 dendrites were measured from each neuron and 5-7 neurons were imaged per coverslip. […]
# Chain of Pyk2 (Q14289 whole entry, species assumed, the tested form may be a part): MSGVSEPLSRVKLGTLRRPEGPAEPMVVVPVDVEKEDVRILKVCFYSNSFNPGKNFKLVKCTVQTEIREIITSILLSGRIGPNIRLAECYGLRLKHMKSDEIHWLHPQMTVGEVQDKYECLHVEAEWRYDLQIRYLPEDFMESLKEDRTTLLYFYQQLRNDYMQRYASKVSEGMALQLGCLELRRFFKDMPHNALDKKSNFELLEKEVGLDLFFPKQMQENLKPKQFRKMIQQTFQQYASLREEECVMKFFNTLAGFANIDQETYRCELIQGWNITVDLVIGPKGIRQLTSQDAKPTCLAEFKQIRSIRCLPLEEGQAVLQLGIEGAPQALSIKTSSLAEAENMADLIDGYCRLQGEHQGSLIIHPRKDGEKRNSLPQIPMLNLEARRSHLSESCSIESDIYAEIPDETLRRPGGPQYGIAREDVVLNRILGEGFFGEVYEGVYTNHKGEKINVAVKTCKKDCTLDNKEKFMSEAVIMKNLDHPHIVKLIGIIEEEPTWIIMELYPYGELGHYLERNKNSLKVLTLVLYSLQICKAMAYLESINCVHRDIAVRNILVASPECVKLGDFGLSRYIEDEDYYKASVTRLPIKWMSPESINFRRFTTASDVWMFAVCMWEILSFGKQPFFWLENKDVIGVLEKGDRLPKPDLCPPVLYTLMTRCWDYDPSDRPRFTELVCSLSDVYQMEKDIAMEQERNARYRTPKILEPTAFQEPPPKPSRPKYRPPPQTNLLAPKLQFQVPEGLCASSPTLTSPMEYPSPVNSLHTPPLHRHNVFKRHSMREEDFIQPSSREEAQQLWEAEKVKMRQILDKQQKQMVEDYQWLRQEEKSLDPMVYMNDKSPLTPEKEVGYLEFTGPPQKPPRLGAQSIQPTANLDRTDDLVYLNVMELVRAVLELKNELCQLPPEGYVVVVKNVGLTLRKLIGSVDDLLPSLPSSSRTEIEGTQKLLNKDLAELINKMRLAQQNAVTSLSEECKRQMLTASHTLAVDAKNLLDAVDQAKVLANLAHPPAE
compound,measurement,setting,value
"CCOc1ccc2nc(SCc3nc(N)nc(N4CCOCC4)n3)sc2c1 [PF-719, 4-(((6-ethoxybenzo[d]thiazol-2-yl)thio)methyl)-6-morpholino-1,3,5-triazin-2-amine]",Inhibition Character,Pyk2,Pyk2 selective
same,learning and memory performance,APP/PS1 transgenic mice,significantly greater than Vehicle/untreated levels
same,Aβo dependent spine loss,[1],rescue fully Aβo dependent spine loss
